This series is described as follows: Stability of lyophilized formulations of SYN3, concentration by HPLC after reconstitution. It is filed as physicochemical. The following applies: in the dehydrated powder at 40° C. As to the method: Stability testing of the resultant lyophilized products of Examples 13, 14 and 15 yielded the following results:
Stability testing was accomplished by HPLC. Lyophilized formulations were reconstituted (redissolved) with 19.5 ml WFI. Samples were placed in the indicated temperature conditions, incubated for specified times and concentrations were determined by HPLC and compared to initial concentrations.

This is an account of results in patent publication US9115374B2, “SYN3 compositions and methods” (MERCK SHARP & DOHME CORP., priority 2001, dated 2015).

As for `C[C@H](CCC(=O)NCCCN(CCCNC(=O)[C@H](O)[C@@H](O)[C@H](O[C@@H]1O[C@H](CO)[C@H](O)[C@H](O)[C@H]1O)[C@H](O)CO)C(=O)CC[C@@H](C)[C@H]1CC[C@H]2[C@@H]3[C@H](O)C[C@@H]4C[C@H](O)CC[C@]4(C)[C@H]3C[C@H](O)[C@]12C)[C@H]1CC[C@H]2[C@@H]3[C@H](O)C[C@@H]4C[C@H](O)CC[C@]4(C)[C@H]3C[C@H](O)[C@]12C` [SYN3, (N —(3-cholamidopropyl)—N —(3-lactobionamidopropyl))-cholamide], the “time SYN3 remains stable” value is “at least 3 months”.
